The values that follow come from patent US4705900A, “Insecticidal alkenes” (Imperial Chemical Industries PLC, priority 1985, dated 1987).

For one experiment, the system named is Tetranychus urticae. Briefly: mortality of red spider mites (TU), contact test. The format is in vivo, Tetranychus urticae (red spider mites - adult). Particulars: Tetranychus urticae, 72 h, 500 ppm, French bean leaf, 3 days, read-out: grading of mortality, TU. The protocol: (§1) The activity of the Product was determined using a variety of insect pests. The Product was used in the form of liquid preparations containing 500 or 100 parts per million (ppm) by weight of the Product. The preparations were made by dissolving the Product in acetone and diluting the solutions with water containing 0.01% by weight of a wetting agent sold under the trade name "LISSAPOL" NX until the liquid preparations contained the required concentration of the Product. "Lissapol" is a Registered Trade Mark.
(§2) The test procedure adopted with regard to each pest was basically the same and comprised supporting a number of the pests on a medium which was usually a host plant or a foodstuff on which the pests feed, and treating either or both the pests and the medium with the preparations. The mortality of the pests was then assessed at periods usually varying from one to three days after the treatment.
(§3) The results of the tests are given in Table IV for each of the Products, at the rate in parts per million given in the second column as a grading of mortality designated as A, B or C wherein A indicates 80-100% mortality or knockdown, B indicates 50-79% mortality or knockdown and C indicates less than 50% mortality or knockdown.
(§4) In Table IV the pest organism used is designated by a letter code and the pests species, the support medium or food, and the type and duration of test is given in Table III.
(red spider mites - adult)

A further experiment has as its system Myzus persicae. Briefly: mortality of aphids (MP), contact test. The format is in vivo, Myzus persicae (aphids). The conditions noted are these: Myzus persicae, 48 h, 500 ppm, leaf, 2 days, read-out: grading of mortality, MP. The protocol: as §1, §2, §3, §4
A further experiment deals with Nilaparvata lugens. Briefly: mortality of green leaf hopper (NL), contact test. The format is in vivo, Nilaparvata lugens (brown planthopper). Particulars: Nilaparvata lugens, in Brassica oleracea, 144 h, 500 ppm, cabbage leaf, 6 days, read-out: grading of mortality, NL. The protocol: as §1, §2, §3, §4
In experiment [1] the test system is Musca domestica. Kind of experiment: knockdown of houseflies (MD/KD). The format is in vivo, Musca domestica (houseflies - adults). Particulars: Musca domestica, 500 ppm, cotton wool/sugar, 4 hours, read-out: grading of knockdown, MD/KD. The protocol: as §1, §2
In case of the species Musca domestica (housefly), additional tests to determine the knockdown effect of the compounds were performed.
as §3, §4

Experiment [2] has as its system Musca domestica. Briefly: mortality of houseflies (MD), contact test. The format is in vivo, Musca domestica (houseflies - adults). Particulars: Musca domestica, 24 h, 500 ppm, cotton wool/sugar, 1 day, read-out: grading of mortality, MD. The protocol: as §1, §2, §3, §4
In the next experiment the test system is Blattella germanica. Briefly: mortality of cockroach nymphs (BG), residual test. The format is in vivo, Blattella germanica (cockroach nymphs). The conditions noted are these: Blattella germanica, 72 h, 500 ppm, plastic pot, 3 days, read-out: grading of mortality, BG. How it is done:
as §1, §2, §3, §4

The next experiment relates to Heliothis viriscens. Briefly: whole plant or invertebrate. The conditions noted are these: in Gossypium hirsutum, 72 h, read-out: grading of mortality, HV. The format is in vivo, Heliothis viriscens (tobacco budworm). How it is done: as §1, §2, §3, §4
Another experiment concerns Chilo partellurs. Kind of experiment: mortality of stem borers (CP), residual test. The format is in vivo, Chilo partellurs (Stem borers). Particulars: Chilo, 72 h, 500 ppm, oil seed rape leaf, 3 days, read-out: grading of mortality, CP. The protocol:
as §1, §2, §3, §4

For a further experiment, the system named is Diabrotica balteata. Briefly: mortality of rootworm larvae (DB), residual test. The conditions noted are these: Diabrotica balteata, in Zea mays, 72 h, 500 ppm, filter paper/maize seed, 3 days, read-out: grading of mortality, DB. The format is in vivo, Diabrotica balteata (rootworm larvae). The protocol: as §1, §2, §3, §4

For the compound `COc1ccc(/C=C/C(C)(C)COCc2ccc(F)c(Oc3ccccc3)c2)cc1` [Compound 24, 3,3-dimethyl-1-(4-methoxyphenyl)-4-(4-fluoro-3-phenoxybenzyloxy)but-1-ene], the mortality at 500 ppm is 50 to 79% in the experiment with Tetranychus urticae; 50 to 79% in the experiment on Myzus persicae; 80 to 100% in the experiment with Nilaparvata lugens; 80 to 100% in the experiment on Musca domestica [2]; below 50% with Blattella germanica; 50 to 79% in the experiment with Heliothis viriscens. The mortality at 500 ppm with Chilo partellurs is 80 to 100%; with Diabrotica balteata, below 50%. Also, the pest or weed control at 500 ppm with Musca domestica [1] is 80 to 100%.

In the case of `CCC(C)(/C=C\c1ccc(Cl)cc1)COCc1cccc(Oc2ccccc2)c1` (stereo not drawn) [Compound 26, 3-Ethyl-3-methyl-1-(4-chlorophenyl)-4-(3-phenoxybenzyloxy)but-1-ene], the mortality at 500 ppm in the experiment on Tetranychus urticae, in the experiment on Myzus persicae, in the experiment on Nilaparvata lugens, in the experiment on Musca domestica [2], in the experiment with Blattella germanica and with Heliothis viriscens was below 50% each time. Moreover, the mortality at 500 ppm with Chilo partellurs and in the experiment with Diabrotica balteata was below 50% in each case. In the experiment with Musca domestica [1], the pest or weed control at 500 ppm was below 50%.

With `CCOc1ccc(CCC(C)(C)COCc2cccc(Oc3ccccc3)c2)cc1` [Compound 33, 3,3-Dimethyl-1-(4-ethoxyphenyl)-4-(3-phenoxybenzyloxy)butane], the mortality at 500 ppm with Tetranychus urticae, in the experiment on Myzus persicae, with Nilaparvata lugens, in the experiment with Musca domestica [2], in the experiment on Blattella germanica and in the experiment on Heliothis viriscens was below 50% each time. The mortality at 500 ppm in the experiment with Chilo partellurs was 80 to 100%; in the experiment with Diabrotica balteata, below 50%. Also, the pest or weed control at 500 ppm with Musca domestica [1] is below 50%.

For `CC(C)(CCc1ccc(Cl)cc1)COCc1cccc(Oc2ccccc2)c1` [Compound 34, 3,3-dimethyl-1-(4-chlorophenyl)-4-(3-phenoxybenzyloxy)butane], the mortality at 500 ppm is 50 to 79% in the experiment with Tetranychus urticae; below 50% with Myzus persicae; below 50% with Nilaparvata lugens; below 50% in the experiment on Musca domestica [2]; below 50% with Blattella germanica; 80 to 100% with Heliothis viriscens. The mortality at 500 ppm in the experiment with Chilo partellurs is 80 to 100%; in the experiment on Diabrotica balteata, below 50%. Besides, the pest or weed control at 500 ppm in the experiment with Musca domestica [1] was below 50%.

For orientation: mortality means the share of the test organisms that died.
